From patent US9040545B2, “Heterocyclyl pyrazolopyrimidine analogues as selective JAK inhibitors” (Cellzome Limited, priority 2010, dated 2015)

The compounds below were run against T1, JAK3 (Homo sapiens, UniProt P52333) (assay: Kinobeads assay, JAK3). Settings: mixed Molt4/Ramos lysate, read-out: Inhibition values (IC50) JAK3.
T1 construct: endogenous in cells; host or cells: mixed Molt4/Ramos lysate (1:2)
T1 sequence (P52333 1-1124): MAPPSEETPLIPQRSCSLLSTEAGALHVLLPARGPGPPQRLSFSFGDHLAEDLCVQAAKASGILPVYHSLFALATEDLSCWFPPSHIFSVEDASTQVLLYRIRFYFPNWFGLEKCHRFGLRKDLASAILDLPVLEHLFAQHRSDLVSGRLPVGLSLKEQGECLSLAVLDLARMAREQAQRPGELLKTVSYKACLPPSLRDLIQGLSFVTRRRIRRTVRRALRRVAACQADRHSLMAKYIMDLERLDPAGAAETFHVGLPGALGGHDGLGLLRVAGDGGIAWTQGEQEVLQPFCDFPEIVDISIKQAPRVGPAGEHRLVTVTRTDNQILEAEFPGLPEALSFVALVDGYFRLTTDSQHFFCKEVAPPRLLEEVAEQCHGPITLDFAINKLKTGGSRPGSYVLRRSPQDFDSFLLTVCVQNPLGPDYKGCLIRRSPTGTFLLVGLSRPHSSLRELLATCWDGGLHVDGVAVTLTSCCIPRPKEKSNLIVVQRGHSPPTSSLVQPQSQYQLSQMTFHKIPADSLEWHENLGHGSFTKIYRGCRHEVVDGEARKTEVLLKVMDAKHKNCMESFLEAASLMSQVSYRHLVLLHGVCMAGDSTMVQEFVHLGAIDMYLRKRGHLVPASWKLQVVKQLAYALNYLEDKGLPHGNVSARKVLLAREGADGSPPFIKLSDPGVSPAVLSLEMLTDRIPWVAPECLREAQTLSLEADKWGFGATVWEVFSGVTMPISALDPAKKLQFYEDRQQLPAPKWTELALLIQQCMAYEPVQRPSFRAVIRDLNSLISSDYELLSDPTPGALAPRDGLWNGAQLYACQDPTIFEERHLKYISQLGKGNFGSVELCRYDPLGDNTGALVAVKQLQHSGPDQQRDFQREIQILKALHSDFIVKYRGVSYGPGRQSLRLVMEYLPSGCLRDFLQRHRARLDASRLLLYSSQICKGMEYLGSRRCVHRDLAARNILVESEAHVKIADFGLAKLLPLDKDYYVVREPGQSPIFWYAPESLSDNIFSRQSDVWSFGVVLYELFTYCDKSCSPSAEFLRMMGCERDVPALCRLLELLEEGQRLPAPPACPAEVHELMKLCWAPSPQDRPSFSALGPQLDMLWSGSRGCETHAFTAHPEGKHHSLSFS
Assay type: binding
Procedure, shortened: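 Competition binding in mixed Molt4/Ramos cell lysate (1:2, 10 mg/mL protein) with Kinobeads carrying immobilized aminopyrido-pyrimidine ligand, 3 h in cold room; 9-step 1:3 compound dilution series from 5 mM DMSO stock. Bead-bound JAK2/JAK3 eluted and quantified by antibody dot blot with infrared detection; IC50 from dose-response curves.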

`OCCn1cc(Nc2ncc3cnn(Cc4cccc(N5CCNCC5)c4F)c3n2)cn1` [Example 83, 2-(4-((1-(2-Fluoro-3-(piperazin-1-yl)benzyl)-1H-pyrazolo[3,4-d]pyrimidin-6-yl)amino)-1H-pyrazol-1-yl)ethanol] and `O=C(c1cccc(Cn2ncc3cnc(Nc4cnn(CCO)c4)nc32)c1F)N1CCOCC1` [Example 85, (2-Fluoro-3-((6-((1-(2-hydroxyethyl)-1H-pyrazol-4-yl)amino)-1H-pyrazolo[3,4-d]pyrimidin-1-yl)methyl)phenyl)(morpholino)methanone] cannot be ordered by IC50: < 0.1 µM for the first, < 0.1 µM for the second.

Compared with `O=C1COCCN1c1cc(F)cc(Cn2ncc3cnc(Nc4cn[nH]c4)nc32)c1` [Example 84, 4-(3-((6-((1H-Pyrazol-4-yl)amino)-1H-pyrazolo[3,4-d]pyrimidin-1-yl)methyl)-5-fluorophenyl)morpholin-3-one], `Cn1cc(Nc2ncc3cnn(Cc4cccc(N5CCOCC5O)c4)c3n2)cn1` (stereo not drawn) [Example 88, 4-(3-((6-((1-Methyl-1H-pyrazol-4-yl)amino)-1H-pyrazolo[3,4-d]pyrimidin-1-yl)methyl)phenyl)morpholin-3-ol] is higher in IC50: < 0.1 µM for the first, 0.1 to 1 µM for the second. The first is the more potent here.

`Cn1cc(Nc2ncc3cnn(Cc4cc(N5CCNCC5)cc(F)c4F)c3n2)cn1` [Example 86, 1-(2,3-Difluoro-5-(piperazin-1-yl)benzyl)-N-(1-methyl-1H-pyrazol-4-yl)-1H-pyrazolo[3,4-d]pyrimidin-6-amine] and `Cn1cc(Nc2ncc3cnn(Cc4cccc(C(=O)N5CCOCC5)c4F)c3n2)cn1` [Example 87, (2-Fluoro-3-((6-((1-methyl-1H-pyrazol-4-yl)amino)-1H-pyrazolo[3,4-d]pyrimidin-1-yl)methyl)phenyl)(morpholino)methanone] cannot be ordered by IC50: < 0.1 µM for the first, < 0.1 µM for the second.
